Measured values taken from patent publication US20050004124A1, “THERAPIES RELATING TO COMBINATIONS OF ALDOSE REDUCTASE INHIBITORS AND CYCLOOXYGENASE-2 INHIBITORS” (priority 2001, published 2005).

| melting point | SMILES |
| --- | --- |
| 250 °C | O=c1ccc(S(=O)(=O)c2[nH]c3ccccc3c2Cl)n[nH]1 [Example 36, 6-(3-Chloro-indole-2-sulfonyl)-2H-pyridazin-3-one] |
| 186 to 189 °C | O=c1ccc(S(=O)(=O)c2oc3ccccc3c2O)n[nH]1 [Example 16, 6-(3-Hydroxy-benzofuran-2-sulfonyl)-2H-pyridazin-3-one] |
| 233 to 235 °C | Cn1c(S(=O)(=O)c2ccc(=O)[nH]n2)cc2ccccc21 [Example 40, 6-(N-Methylindole-2-sulfonyl)-2H-pyridazin-3-one] |
